US8501440B2 (Case Western Reserve University, priority 2006, dated 2013)
Entries after “also recorded” stand apart in the source; their conditions may differ.

Legend:
[1] = system: human breast cancer cell line MCF-7; test: Mitogenicity in cell culture (cell growth, DNA content); type: cell-based; conditions: MCF-7, 3-days exposure, cell number and DNA content
Method: Growth media were supplemented with 10% fetal bovine serum (FBS) (Invitrogen Life Technologies, Inc., Carlsbad, AA), penicillin (100 U/ml) and streptomycin (100 ug/mL). Approximately 1.0×10^5 cells were seeded into 35-mm dishes and cultured until subconfluent. Two assays were employed: (i) Cell-growth curves were determined by hemocytometry. Approximately 5×10^4 were seeded into a 24-well plate and cultured for 24 h. After 24 hour, the medium was removed and replaced with fresh medium containing 0.1% BSA. […] Cell numbers were determined after 3-days exposure to the hormones. (ii) Cell DNA content was determined using a DNA measurement kit (Invitrogen) following 3-days exposure to the hormones in cell culture as above.

[2] = system: diabetic Lewis rats; test: Blood glucose lowering in streptozotocin-diabetic rats; type: in vivo, rat; conditions: streptozotocin-diabetic male Lewis rats, 1.5 U/kg subcutaneously, 0-90 min
Method: Male Lewis rats (˜250 g body weight) were rendered diabetic with streptozotocin. […] Rats were injected subcutaneously at time=0 with 1.5 U/kg body weight in 100 μl of diluent. Blood was obtained from clipped tip of the tail at time 0 and every 10 minutes up to 90 min. Blood glucose was measured using a Hypoguard Advance Micro-Draw meter.

[3] = molecular target: T1, Insulin-like Growth Factor receptor (IGFR) (Homo sapiens, UniProt P08069); test: IGFR binding assay (microtiter plate antibody assay); conditions: relative to IGF-1
T1 construct: expressed in transfected cells; host or cells: PEAK rapid cells, transient transfection, Triton X-100 lysate
Method: Receptor-Binding Assays. […] Subsequent to incubation, mixtures are diluted with 1 ml of ice-cold buffer and centrifuged (10,000 g) for 5 min at 4° C. The supernatant will then be removed by aspiration, and the membrane pellet counted for radioactivity. […] Binding data were analyzed by a two-site sequential model. A corresponding microtiter plate antibody assay using the IGF Type I receptor was employed to assess cross-binding to this homologous receptor.
DNA for transfection was prepared according to the method of Mynarcik et al. (J. Biol. Chem., 1997, 272, pp 18650-18655). The receptor cDNAs were expressed transiently in PEAK rapid cells using polyethyleneimine. Cells were harvested by lysis in 0.15M NaCl and 0.1M Tris (pH 8) containing 1% (v/v) Triton X-100 and protease inhibitor cocktail three days post-transfection. Lysates were stored at −80° C. until assay. Receptor-binding assays were performed as described by Mynarcik. Microtiter strip plates (Nunc Maxisorb) were incubated overnight at 4° C. with anti-FLAG IgG ([…] of a […] solution in PBS). […] Binding data were analyzed by a two-site sequential model with homologous or heterologous labeled and unlabeled ligands to obtain dissociation constants as described by Whittaker et al. (J. Biol. Chem., 2001, 276, pp 43980-43986).

[4] = Thermodynamic stability by guanidine denaturation; type: physicochemical; conditions: 37° C. and pH 7.4
Method: Circular Dichroism—Samples were dissolved in either 10 mM phosphate and 100 mM KCl (pH 7.4) or 0.01 N HCl (pH 2.0) at a protein concentration of 25 μM. To remove particulate matter and protein aggregates, samples were filtered ([…]; Satorius, Goetlingen, Germany). Spectra, acquired with an Aviv spectropolarimeter (Aviv Biomedical, Inc., Lakewood, N.J.), were normalized. […]

[5] = Fibrillation assay (thioflavin T fluorescence); type: physicochemical; conditions: zinc free, 60 μM, pH 7.4, 37° C., tilting table
Method: Samples (in triplicate) were placed in sealed glass vials and placed on an automated tilting table at 37° C. At successive times aliquots were withdrawn and analyzed by a thioflavin T (ThT) fluorescence spectroscopy assay to determine the onset of fibrillation as follows.
Thioflavin T (ThT) was made 1 mM in double-distilled water and stored at 4° C. in the dark. To monitor fibrillation, 10-μl aliquots of samples were obtained at indicated time points and were mixed with 3 ml of ThT assay buffer (5 μM ThT in 50 mM Tris-HCl (pH 7.5) and 100 mM NaCl). Fluorescence measurements were performed using an Aviv spectrofluorometer in 1-cm quartz cuvettes. Emission spectra were collected from 470 to 500 nm following excitation at 450 nm; the integration time was 1 s. ThT in buffer without protein was used as baseline. The fibrillation lag time is defined as the time required to observe twofold enhancement in ThT emission. The threshold of twofold-enhanced ThT fluorescence is followed a rapid increase in turbidity associated with elongation of mature fibrils and a further increase in ThT fluorescence.

T1 sequence (P08069 31-736 limits assumed): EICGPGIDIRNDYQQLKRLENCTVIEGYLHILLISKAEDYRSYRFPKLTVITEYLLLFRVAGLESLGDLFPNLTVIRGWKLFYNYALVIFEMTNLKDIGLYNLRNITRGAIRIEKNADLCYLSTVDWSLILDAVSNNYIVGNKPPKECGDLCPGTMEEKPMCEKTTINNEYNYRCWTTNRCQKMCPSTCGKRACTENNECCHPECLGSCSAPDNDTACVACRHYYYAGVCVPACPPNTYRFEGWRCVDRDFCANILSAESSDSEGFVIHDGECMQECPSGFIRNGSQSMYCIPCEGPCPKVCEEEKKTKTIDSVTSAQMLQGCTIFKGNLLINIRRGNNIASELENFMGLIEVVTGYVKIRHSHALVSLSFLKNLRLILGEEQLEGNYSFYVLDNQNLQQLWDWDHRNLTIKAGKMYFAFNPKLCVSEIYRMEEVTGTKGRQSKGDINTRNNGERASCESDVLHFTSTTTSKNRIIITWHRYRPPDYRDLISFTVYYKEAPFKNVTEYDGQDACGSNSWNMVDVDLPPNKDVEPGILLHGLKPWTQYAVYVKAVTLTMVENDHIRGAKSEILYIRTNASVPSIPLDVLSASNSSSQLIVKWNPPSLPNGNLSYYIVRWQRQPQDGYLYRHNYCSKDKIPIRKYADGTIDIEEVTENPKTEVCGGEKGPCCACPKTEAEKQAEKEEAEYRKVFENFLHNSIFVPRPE
T1 sequence (P08069 741-1367 partner limits assumed): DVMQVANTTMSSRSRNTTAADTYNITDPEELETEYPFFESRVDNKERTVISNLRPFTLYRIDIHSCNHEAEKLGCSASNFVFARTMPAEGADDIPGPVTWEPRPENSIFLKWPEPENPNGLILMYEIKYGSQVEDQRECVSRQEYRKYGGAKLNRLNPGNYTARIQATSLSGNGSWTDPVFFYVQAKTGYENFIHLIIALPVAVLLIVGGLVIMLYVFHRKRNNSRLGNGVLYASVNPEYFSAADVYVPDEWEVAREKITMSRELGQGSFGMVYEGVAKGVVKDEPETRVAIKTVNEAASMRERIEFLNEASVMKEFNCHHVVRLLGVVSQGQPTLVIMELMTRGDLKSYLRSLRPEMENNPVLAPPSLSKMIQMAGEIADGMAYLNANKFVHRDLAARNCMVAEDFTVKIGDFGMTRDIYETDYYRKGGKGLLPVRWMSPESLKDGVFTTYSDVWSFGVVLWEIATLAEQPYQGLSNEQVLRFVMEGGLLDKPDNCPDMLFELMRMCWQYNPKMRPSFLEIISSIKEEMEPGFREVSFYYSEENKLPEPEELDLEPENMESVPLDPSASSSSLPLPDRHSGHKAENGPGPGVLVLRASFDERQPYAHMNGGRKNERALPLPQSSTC

Substance | mitogenicity ([1]; listed as 57 mer single-chain insulin analogue) | rate of decrease of blood glucose concentration [2] | IGFR Relative Affinity [3] | mitogenicity [1] | ΔGu [4] | Lag time (days ± 10%) [5]
57mer single-chain analogue: 57-mer single-chain insulin, SEQ ID NO: 26; His^A8, Asp^B10, Asp^B28, Pro^B29 substitutions; six-residue linker GGGPRR between B30 and A1 | indistinguishable from human insulin; also recorded: significantly less mitogenic than IGF-I | 62.0±16.3 mg/dL per h | – | – | – | –
IGF-I | – | – | 1 | – | – | –
Corresponding two-chain analogue: two-chain insulin analogue with His^A8, Asp^B10, Asp^B28, Pro^B29 substitutions; SEQ ID NOS: 28 and 29 | – | 53.2±11.7 mg/dL per h | – | intermediate between the single-chain insulin analogue | 3.6 kcal/mol | 70 ± 5 days
